# Results from paper PMC11662161 (Neuro-Oncology Advances, 2024).
# Several values for one entry are separate records, joined by “and”; a condition that tells them apart may be missing. Equal entries are not always repeated. Where two headings read alike, the source gives them in different places.
# Legend:
# [1] = test system: recurrent high-grade glioma (HGG); details: ref Dmello et al., submitted to Neuro-Oncology Advances, cited from earlier work
# Text: Variable response to paclitaxel between patients is a well-known phenomenon for several cancers, with ~50% of patients being susceptible to this drug as a monotherapy. We recently reported endoplasmic reticulum translocon complex protein SSR3 as a predictive biomarker for glioma and breast cancer susceptibility to this drug.[22] In a companion manuscript (Dmello et al., submitted to Neuro-Oncology Advances), we report an analysis of available tumor samples from this phase II trial (NCT01967810), where we evaluated the correlation with baseline SSR3 expression with OS on this cohort. This study ...
# recurrent glioma tumors = details: following a single intravenous infusion; cited from earlier work
# Text: (§1) The overall safety profile was favorable and consistent with the known side effect profile of unconjugated paclitaxel.
# [2] = test system: brain metastases from breast tumors and other advanced solid tumors; details: doses ≥ 420 mg/m^2, cited from earlier work
# Text: as §1
# [3] = test system: recurrent high-grade glioma (HGG); assay: Phase II trial NCT01967810: efficacy (RANO response, PFS, OS); format: in vivo, human; details: for duration (of response) rate: identical at 3, 6 and 12 months
# Text: The protocol was reviewed and approved by the institutional review board of each participating center. All patients gave written informed consent for trial participation. According to 2007 WHO classification used in this study, HGG included grade 3 AGs such as anaplastic astrocytomas (AAs), anaplastic oligodendrogliomas (AOs), and anaplastic oligoastrocytomas (AOAs), as well as grade 4 GBM.[16] […] Additionally, a Karnofsky Performance Scale (KPS) score ≥ 80, neurologic stability with patients receiving stable doses of corticosteroids and anticonvulsants, and normal hepatic, renal, and hematologic function with ≥ 3 months of expected survival were requirements for inclusion. In patients with gliomas refractory to bevacizumab, radiological confirmation of tumor progression during bevacizumab therapy was necessary.
# Gadolinium-enhanced magnetic resonance imaging of the brain was used to evaluate disease extent beginning at baseline and continued every two treatment cycles (ie, every 6 ± 2 weeks) until disease progression or unacceptable treatment toxicity. […] The Response Assessment in Neuro-Oncology (RANO) was utilized for two-dimensional intracranial tumor assessment.[17]
# The primary objectives of the study were to determine (1) the objective response rate (ORR) in bevacizumab-naïve recurrent GBM patients (Arm 1), (2) progression-free survival rate at 3 months (PFS3) in the bevacizumab-refractory recurrent GBM patients (Arm 2), and (3) ORR in recurrent AG patients (Arm 3). The arms were predefined. Bevacizumab was not continued in bevacizumab-refractory patients.
# The secondary objectives of this study were to determine (1) the ORR in Arm 2; (2) number of patients without progression at 3, 6, and 12 months in Arms 1 and 3; (3) number of patients without progression at 6 and 12 months in Arm 2; (4) median progression-free survival in each arm; (5) median duration of response in each arm; (6) median overall survival (OS) in each arm; (7) safety and tolerability; and (8) plasma pharmacokinetic profile.
# ORR was defined as the proportion of patients with a CR or PR. The assessment was made according to RANO criteria based on the investigator’s assessment.[17] The ORR was the primary endpoint for Arms 1 and 3 and a secondary endpoint for Arm 2. ORR for each arm was calculated, and a 2-sided 95% confidence interval was provided using the exact method based on the binomial distribution. PFS was defined as the time from study enrollment to documented disease progression as determined by the local investigator, clear clinical progression in the absence of a brain MRI determination of progression, or death from any cause, whichever occurred first. PFS was the primary endpoint for Arm 2 and a secondary endpoint for Arms 1 and 3. Patients with a clinical determination of progression underwent an MRI assessment. If a clinical determination of progression for a patient was confirmed by an MRI, the date of the MRI was considered as the progression date for that patient. The data for patients who were still alive and free from disease progression at the time of data cutoff were administratively censored on the last assessment (or, if no post-baseline tumor assessment, at the time of first dose plus 1 day). Data for patients who were lost to follow-up prior to documented disease progression were censored at the last disease assessment date when the patient was known to be disease progression-free. Kaplan–Meier methodology was used to estimate the 3-month PFS rate, and 95% confidence intervals for PFS rate were computed using Greenwood’s formula by arms. In addition, the median PFS was calculated for each arm.
# [4] = test system: patients with recurrent HGG; assay: Phase II trial NCT01967810: neurocognitive function testing (HVLT-R, TMT A/B, COWA; reliable change index); format: in vivo, human; details: for neurocognitive function stable or improved (RCI), across the battery of tests: end of treatment visit
# Procedure: The end of treatment assessment was only performed if no neurocognitive assessment was done within 30 (± 3) days. Information regarding the patient’s demographic background was collected. Neurocognitive test administrators were trained and provided with a manual to ensure standardized test administration. Neurocognitive test results were evaluated and read centrally. Three domains of neurocognitive function were measured as exploratory endpoints in this study: memory, visuomotor scanning speed (eg, complex visual scanning with a motor component), and executive function (eg, mental flexibility). The neurocognitive battery included the following tests: Hopkins Verbal Learning Tests—Revised (HVLT-R Total Recall, Delayed Recall, Delayed Recognition), Trail Making Test Part A and Part B[18] (TMBTA, TMBTB), and Controlled Oral Word Association (COWA).[19] […]
# [5] = test system: patients with recurrent HGG; assay: Phase II trial NCT01967810: safety and tolerability (adverse events, NCI CTCAE v4.0; treatment discontinuation)
# Procedure: Subsequently, a total of 69 patients were enrolled at 600 mg/m^2 as a starting dose. Dose reductions or delays were allowed if toxicity was observed. Patients were monitored for a minimum of 1 h after the completion of each infusion.
# Dose reductions were mandatory for all patients who experienced any (life-threatening) Grade 4 toxicity, and for selected Grade 3 toxicities, such as Grade 3 pneumonitis, Grade 3 peripheral neuropathy or CNS toxicity, or Grade 3 cardiac adverse events (AEs).
# Evaluation of safety included the analysis of AEs and the analysis of laboratory and vital signs data using the safety population. Verbatim descriptions of AEs were mapped according to the Medical Dictionary for Regulatory Activities (MedDRA) v17.0 or later thesaurus terms and graded according to the NCI CTCAE v4.0. […] Laboratory data was analyzed with shift tables and summaries of change from baseline to maximum post-treatment value based on local lab normal ranges. Change from baseline in vital signs were summarized. Neurocognitive function test data was analyzed by descriptive statistics (mean, SD and median) and change in neurocognitive function from baseline to each follow-up time point was categorized as improved, stable, or declined based on the reliable change index (RCI) for each test.
# [6] = % of patients, N = 73, all arms
# [7] = % of patients, N = 73, table cell prints n (%)
substance,measurement,setting,value
paclitaxel trevatide [ANG1005],median OS,"[1]; patients with high SSR3 expression, 95% CI 14.59, NA, P = .2 vs low",18 months
same,median OS,"[1]; patients with low SSR3 expression, 95% CI 5.41, NA",9 months
same,transport across the BBB and tumor penetration,recurrent glioma tumors,tumor penetration at therapeutic concentrations
same,"overall PR, non-CNS peripheral metastases response",[2]; 4/16 patients,25%
same,"overall partial response (PR), CNS response",[2]; 4/18 patients,22%
same,"stable disease (SD), CNS response",[2]; 10/18 patients,56%
same,PFS rate,"[3]; 3 months, Arm 1, 95% CI: 12.2, 56.4",33.3%
same,PFS rate,"[3]; 3 months, Arm 3, 95% CI: 18.9, 53.0",35.7%
same,median duration of response,"[3]; 3 responders (2 in Arm 1, 1 in Arm 3), 95% CI: 2.1, NA",13.4 months
same,PFS rate,"[3]; 6 months, Arm 1, 95% CI: 8.3, 49.6",26.7%
same,PFS rate,"[3]; 6 months, Arm 3, 95% CI: 18.9, 53.0",35.7%
same,PFS rate,"[3]; 12 months, Arm 1, 95% CI: 2.2, 34.6",13.3%
same,PFS rate,"[3]; 12 months, Arm 3, 95% CI: 11.8, 44.4",26.8%
same,clinical benefit rate (SD or better),"[3]; Arm 1, mITT",46.6%
same,progressive disease,"[3]; Arm 1, mITT, 8 subjects",53.3%
same,median OS,"[3]; Arm 1, mITT, 95% CI: 3.4, 14.6",13.4 months
same,median OS,"[3]; Arm 1, safety population, 95% CI: 3.06, 13.67",6.74 months
same,median duration of response,"[3]; Arm 1, 95% CI: 2.1, 13.4",7.75 months
same,duration (of response) rate,"[3]; Arm 1, 95% CI: 0.6, 91.0",50.0%
same,responders (CR or PR),"[3]; Arm 2 (bevacizumab-refractory GBM), mITT, secondary endpoint",none
same,PFS rates,"[3]; Arm 2, at each time point (3, 6, 12 months), PFS3 is the primary endpoint",0
same,clinical benefit rate (SD or better),"[3]; Arm 2, mITT",22.2%
same,subjects who progressed or died,"[3]; Arm 2, mITT",All subjects
same,progressive disease,"[3]; Arm 2, mITT, 7 subjects",77.8%
same,median OS,"[3]; Arm 2, mITT, 95% CI: 1.9, 9.7",5.8 months
same,median OS,"[3]; Arm 2, safety population, 95% CI: 1.94, 6.67",3.02 months
same,median duration of response,[3]; Arm 3,not reached
same,clinical benefit rate (SD or better),"[3]; Arm 3, mITT",53.6%
same,progressive disease,"[3]; Arm 3, mITT, 13 subjects",46.4%
same,median OS,"[3]; Arm 3, mITT, 95% CI: 10.7, 35.3",18.2 months
same,median OS,"[3]; Arm 3, safety population, 95% CI: 8.67, 21.95",16.03 months
same,duration (of response) rate,"[3]; Arm 3, 95% CI: 100,100",100%
same,overall median PFS,"[3]; across all 3 arms, mITT, investigator-assessed, 95% CI: 1.4, 2.1",1.4 months
same,"overall ORR (CR or PR, RANO, investigator)","[3]; mITT n = 52, all arms, 3 subjects, 95% CI: 1.2, 15.9",5.8%
same,subjects who progressed or died,"[3]; mITT n = 52, 47 subjects",90.4%
same,overall median OS,"[3]; mITT population n = 52, 95% CI: 7.03, 14.78",12.94 months
same,progressive disease,"[3]; overall, mITT n = 52, 28 subjects",53.8%
same,duration (of response) rate,"[3]; overall, 95% CI: 5.4, 94.5",66.7%
same,overall median OS,"[3]; safety population n = 73, 95% CI: 6.34, 12.94",8.67 months
same,"neurocognitive function stable or improved (RCI), across the battery of tests","[4]; % of patients, Arm 1 (n = 5)",40–100%
same,CTB composite score: decline in neurocognitive function,"[4]; % of patients, Arm 1, EOT",40%
same,CTB composite score: stable neurocognitive function,"[4]; % of patients, Arm 1, EOT",60%
same,"neurocognitive function stable or improved (RCI), across the battery of tests","[4]; % of patients, Arm 2 (n = 4)",50–75%
same,CTB composite score: decline in neurocognitive function,"[4]; % of patients, Arm 2, EOT",50%
same,CTB composite score: stable neurocognitive function,"[4]; % of patients, Arm 2, EOT",50%
same,"neurocognitive function stable or improved (RCI), across the battery of tests","[4]; % of patients, Arm 3 (n = 13)",69–100%
same,CTB composite score: decline in neurocognitive function,"[4]; % of patients, Arm 3, EOT",25%
same,CTB composite score: improved neurocognitive function,"[4]; % of patients, Arm 3, EOT",8%
same,CTB composite score: stable neurocognitive function,"[4]; % of patients, Arm 3, EOT",67%
same,CTB composite score: improved neurocognitive function,"[4]; Arm 1, EOT",no patients
same,CTB composite score: improved neurocognitive function,"[4]; Arm 2, EOT",no patients
same,most common AEs: alopecia,[5]; [6],31.5% and 32%
same,most common AEs: fatigue,[5]; [6],30.1% and 30%
same,most common AEs: hematologic,[5]; [6],32.9%
same,most commonly reported AEs: neutropenia,[5]; [6],33%
same,patients with a Grade 5 SAE,"[5]; % of patients, N = 73, 3 patients",4.1%
same,patients with a Grade 4 SAE,"[5]; % of patients, N = 73, 9 patients",12.3%
same,patients with a Grade 3 SAE,"[5]; % of patients, N = 73, 19 patients",26.0%
same,related AEs by SOC: gastrointestinal disorders,"[5]; % of patients, N = 73, 34 patients",46.6%
same,related AEs by SOC: skin and subcutaneous tissue disorders,"[5]; % of patients, N = 73, 35 patients",47.9%
same,related AEs by SOC: blood and lymphatic system disorders,"[5]; % of patients, N = 73, 37 patients",50.7%
same,related AEs by SOC: general disorders and administration site reactions,"[5]; % of patients, N = 73, 42 patients",57.5%
same,AEs: skin and subcutaneous disorders,"[5]; % of patients, N = 73, 44 patients",60.3%
same,AEs: gastrointestinal disorders,"[5]; % of patients, N = 73, 45 patients",61.6%
same,AEs: general disorders and administration site reactions,"[5]; % of patients, N = 73, 50 patients",68.5%
same,AEs: nervous system disorders including peripheral neuropathy,"[5]; % of patients, N = 73, 57 patients",78.1%
same,SAEs related to ANG1005: patients reporting at least one related SAE,[5]; [7],28.8%
same,SAEs: patients reporting at least one event,[5]; [7],45.2%
same,treatment discontinued due to AEs,"[5]; % of subjects, N = 73, 7 subjects",9.6%
same,number of AEs that led to death,[5]; Arm 3 (hydrocephalus),one
same,patients who experienced at least one AE,"[5]; N = 73, all arms",All patients
same,number of AEs that led to death,"[5]; all arms, N = 73, only septic shock considered potentially related to ANG1005",3
